Reference: US12559769B2, “Methods and compositions for the activation of tumor cytotoxicity via human gamma-delta t-cells” (priority 2017, dated 2026)

Tested on: Vγ9Vδ2 T cells
Test: Activation of Vγ9Vδ2 T cells (TNF-α, flow cytometry) by HepG2 liver carcinoma cells co-cultured with expanded PBMC
Assay type: cell-based, human
Experimental: HepG2 cells were transduced with LV-vector, LV-BTN3A3 (R381H), or LV-shFDPS-BTN3A3 (R381H). Three days after transduction, cells were treated with or without 1 μM zoledronic acid. After 24 hours, the transduced HepG2 cells were co-cultured with 5×10^5 PBMC cells and IL-2 in a round bottom 96 well plate for 4 hours. The PBMC cells were pre-stimulated with zoledronic acid and IL-2 for 11 days to expand Vγ9Vδ2 T cells. After staining for Vγ9Vδ2 and TNF-α using fluorophore-conjugated anti TCR-Vδ2 and anti-TNF-α antibody, cells were analyzed via flow cytometry. Live cells were gated, and Vδ2+ and TNF-α+cells were selected on a dot blot. The activated cytotoxic Vγ9Vδ2 T cells appeared in the upper right quadrant of flow cytograms. Without zoledronic acid, the percent of TNF-α expressing Vγ9Vδ2 T cells was 0.6% with LV-vector, 9.5% with BTN3A3 (R381H), and 13.2% with the combination of LV-shFDPS-BTN3A3 (R381H). With zoledronic acid, the percent of TNF-α expressing Vγ9Vδ2 T cells was 7.2% with LV-vector, 17.8% with BTN3A3 (R381H), and 30.1% with the combination of LV-shFDPS-BTN3A3 (R381H).
HepG2 cells were transduced with LV-shFDPS or LV-shFDPS-IL-2. Three days after transduction, cells were treated with or without 1 μM zoledronic acid. After 24 hours, the transduced HepG2 cells were co-cultured with 5×10^5 PBMC cells and with or without IL-2 in a round bottom 96 well plate for 4 hours. The PBMC cells were pre-stimulated with zoledronic acid and IL-2 for 11 days to expand Vγ9Vδ2 T cells. After staining for Vγ9Vδ2 and TNF-α using fluorophore-conjugated anti TCR-Vδ2 and anti-TNF-α antibody, cells were analyzed via flow cytometry. Live cells were gated, and Vδ2+ and TNF-α+ cells were selected on a dot blot. The activated cytotoxic Vγ9Vδ2 T cells appeared in the upper right quadrant of flow cytograms. With only zoledronic acid, the percent of TNF-α expressing Vγ9Vδ2 T cells was 7.5% with LV-shFDPS and 20.1% with LV-shFDPS-IL-2. With zoledronic acid and IL-2, the percent of TNF-α expressing Vγ9Vδ2 T cells was 27.8% with LV-shFDPS and 24.7% with LV-shFDPS-IL-2.
HepG2 liver carcinoma cells were transduced with Lv-shFDPS, Lv-FDPS-IL-15 (expressing both shRNAFDPS and the human cytokine interleukin 15) or Lv-control and cultured for 72 hours. Zoledronic acid (1 μM) was added to (1) cells transduced with Lv-shFDPS, (2) cells transduced with Lv-FDPS-IL-15, and (3) HepG2 cells transduced with Lv-control. Treated cells were cultured for 24 hours. Lv-shFDPS transduced cells, Lv-FDPS-IL-15 transduced cells, and Lv-control transduced cells were co-cultured with PBMC enriched for Vγ9Vδ2 cells plus a protein transport inhibitor (BD GolgiStop) for 4 hours. After 4 hours of stimulation, cells were collected and labeled with Vδ2 phycoerythrin (PE) and TNFαallophycocyanin (APC), and the labeled cells were analyzed by flow cytometry.
HepG2 cells were transduced with LV-control or LV-FDPS shRNA #4 (SEQ ID NO: 4) or LV-GGPS1 shRNA #1 (SEQ ID NO: 70) for 3 days. Two days after transduction, cells were treated with or without 1 μM zoledronic acid. After 24 hours, the transduced HepG2 cells were co-cultured for 4 hours with 5×10^5 PBMC cells in a round bottom 96 well plate. The PBMC cells had been pre-stimulated with zoledronic acid plus IL-2 for at least 11 days to expand Vγ9Vδ2 T cells. After staining for Vγ9Vδ2 and TNF-α using fluorophore-conjugated anti TCR-Vδ2 and anti-TNF-α antibody, cells were analyzed via flow cytometry. Live cells were gated; Vδ2+ and TNF-α+ cells were identified on a dot blot. The activated cytotoxic Vγ9Vδ2 T cells appeared in the upper right quadrant of the flow cytograms. Without zoledronic acid, LV-control stimulated 0.36% of TNF-α expressing Vγ9Vδ2 T cells whereas LV-FDPS shRNA #4 (SEQ ID NO: 4) stimulated 0.9% and LV-GGPS1 #1 (SEQ ID NO: 70) shRNA stimulated 0.58%. […]

[1] = Example 26, FIG. 30, LV-FDPS shRNA #4 transduced HepG2 cells, drug 1 μM, 24 hours
[2] = Example 26, FIG. 30, LV-control transduced HepG2 cells, 1 μM, 24 hours, untreated 1.82%

Structure (SMILES)	percent of TNF-α expressing Vγ9Vδ2 T cells [1] [%]	percent of TNF-α expressing Vγ9Vδ2 T cells [2] [%]	percent of TNF-α expressing Vγ9Vδ2 T cells (Example 26, FIG. 30, LV-FDPS shRNA #4 transduced HepG2 cells, drug 5 μM, 24 hours) [%]	percent of TNF-α expressing Vγ9Vδ2 T cells (Example 26, FIG. 30, LV-control transduced HepG2 cells, 5 μM, 24 hours, untreated 1.82%) [%]	percent of TNF-α expressing Vγ9Vδ2 T cells (Example 4, LV-vector (control) transduced HepG2 cells, 1 μM zoledronic acid) [%]	percent of TNF-α expressing Vγ9Vδ2 T cells (Example 20, LV-control transduced HepG2 cells, 1 μM zoledronic acid) [%]
COC(=O)[C@H](CCSC)NC(=O)c1ccc(NC[C@@H](N)CS)cc1-c1ccccc1 [FT1277]	2.69	1.72	–	–	–	–
C=C(CC[C@]12O[C@H](C(=O)O)[C@@](O)(C(=O)O)[C@](C(=O)O)(O1)[C@H](OC(=O)/C=C/[C@@H](C)C[C@@H](C)CC)[C@H]2O)[C@@H](OC(C)=O)[C@H](C)Cc1ccccc1 [zaragozic acid]	–	–	2.82	1.63	–	–
O=P(O)(O)C(O)(Cn1ccnc1)P(=O)(O)O [zoledronic acid]	50.8	3.02	–	–	7.2	6.88
